In US9919031B2, “Use of the insulin-like-growth factor 1 splice variant MGF for the prevention of myocardial damage” (THE BOARD OF TRUSTEES OF UNIVERSITY OF ILLINOIS, priority 2002, dated 2018):

Experiments:
[1] = test system: cardiac myocytes; assay: Induction of endogenous MGF expression by PMA, real time RT-PCR; assay type: cell-based
Description: Primary cultures of cardiac myocytes were cultured in serum free media for 24 hours prior to the addition of PMA (200 nM). After 30 min total RNA was extracted and MGF gene expression was assayed using real time RT-PCR. […] B. A repeat of the initial experiment but in the third group PMA was added to the cultures without changing the media. MGF expression is increased to a great extent than when PMA is added with fresh media.
In order to investigate which signal appear to modulate MGF expression in cardiac myocytes, several drugs were applied to cardiomyocyte cultures. These in turn activate signal transduction molecules either directly or indirectly through receptor coupled molecules. One such drug is phorbol myristate acetate (PMA), a phorbol ester that specifically activates the Protein Kinase C family of serine/threonine signaling kinases. […] When the amount of MGF is compared to the amount of liver-type IGF in the control conditions, there is substantially less in the cardiac myocytes. […] When the same experiment was repeated but the PMA was added to myocyte cultures in which the media had not been changed for 24 hours prior to the addition of the PMA, the increase in MGF expression is even greater than when PMA is added along with fresh media (FIG. 5B).

[2] = animal models of cardiomyopathy and clinical trials; cited from earlier work
[3] = rats, recombinant L.IGF-I administered after ischemia; cited from earlier work

## CCCCCCCCCCCCCC(=O)O[C@@H]1[C@@H](C)[C@@]2(O)[C@@H](C=C(CO)C[C@]3(O)C(=O)C(C)=C[C@@H]23)[C@@H]2C(C)(C)[C@]12OC(C)=O [PMA, phorbol myristate acetate]
[1]; PMA 200 nM, 30 min
  level of IGF expression: does not change
[1]; PMA 200 nM, 30 min, serum free media 24 hours, added with fresh media
  expression of the endogenous MGF gene: significant increase
[1]; PMA added to cultures whose media had not been changed for 24 hours, versus PMA with fresh media
  increase in MGF expression, media not changed: even greater

## growth hormone: growth hormone; induces expression of systemic insulin-like growth factors via the liver
[2]
  cardiac function: Significant improvement

## recombinant L.IGF-I: recombinant systemic, liver-type IGF-I
[3]
  cell death following transient myocardial ischemia: reduced cell death
